Among the test systems are CAKI-1 renal; HOP-92 NSCLC; OVCAR-4 ovarian; A549 NSCLC; PC-3 prostate; RPMI-8226 leukemia; HCC-2998 colon; SK-MEL-5 melanoma; SK-OV-3 ovarian; COLO 205 colon.
Holding throughout (test): NCI tumour cell line growth inhibition, 48 h

Several values for one entry are separate records, joined by “and”; a condition that tells them apart may be missing. Equal values may be shown once.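 Five compound concentrations were applied to cells in 96-well plates for 48 hours; endpoints were derived by simple linear interpolation of the resulting dose-response curve. GI50 marks 50% less growth. TGI: total growth inhibition.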

As for `CC(C)=CCN=C(N)N`, the TGI was > 100 µM in the experiment with CAKI-1 renal; > 100 µM in the experiment with HOP-92 NSCLC; > 100 µM in the experiment on OVCAR-4 ovarian; > 100 µM in the experiment with A549 NSCLC; > 100 µM with PC-3 prostate; 99.7 µM in the experiment with RPMI-8226 leukemia. Further, the TGI in the experiment with HCC-2998 colon, in the experiment with SK-MEL-5 melanoma, with SK-OV-3 ovarian and in the experiment with COLO 205 colon was > 100 µM in each case.

`C=C1C(=O)O[C@H]2[C@H]1CC/C(CNC(=O)/C=C/c1ccc(Br)cc1)=C\CC[C@@]1(C)O[C@@H]21`: the GI50 in the experiment with CAKI-1 renal is 1.12 µM; with HOP-92 NSCLC it was 0.659 µM; in the experiment with OVCAR-4 ovarian, 1.37 µM; in the experiment on A549 NSCLC it was 2.43 µM; in the experiment with PC-3 prostate, 1.47 µM; in the experiment with RPMI-8226 leukemia, 0.448 µM. The GI50 in the experiment with HCC-2998 colon was 1.56 µM; with SK-MEL-5 melanoma, 1.6 µM; with SK-OV-3 ovarian it was 3.89 µM; with COLO 205 colon, 0.987 µM. The TGI stood at 2.34 µM in the experiment on CAKI-1 renal; 2.26 µM in the experiment with HOP-92 NSCLC; 2.96 µM in the experiment on OVCAR-4 ovarian; 8.72 µM with A549 NSCLC; 3.24 µM with PC-3 prostate; 3.26 µM with RPMI-8226 leukemia. Moreover, the TGI with HCC-2998 colon was found to be 3 µM; in the experiment with SK-MEL-5 melanoma, 2.96 µM; in the experiment on SK-OV-3 ovarian, 12.5 µM; in the experiment on COLO 205 colon it was 2.75 µM.

As for `CN1CCN(c2ccc(C(=O)Nc3n[nH]c4ccc(Cc5cc(F)cc(F)c5)cc34)c(NC3CCOCC3)c2)CC1`, the GI50 was 8.53 µM and 1.56 µM in the experiment on CAKI-1 renal; 0.446 µM and 1.04 µM in the experiment on HOP-92 NSCLC; 6.95 µM and 1.45 µM in the experiment with OVCAR-4 ovarian; 2.5 µM and 1.3 µM with A549 NSCLC; 2.83 µM and 1.38 µM in the experiment on PC-3 prostate; 2.3 µM and 1.86 µM in the experiment on RPMI-8226 leukemia. The GI50 in the experiment with HCC-2998 colon was 1.49 µM and 1.59 µM; with SK-MEL-5 melanoma it was 1.62 µM and 1.56 µM; in the experiment with SK-OV-3 ovarian, 6.65 µM and 1.7 µM; with COLO 205 colon, 1.48 µM. Also, the TGI with CAKI-1 renal is > 10 µM and 3.07 µM; with HOP-92 NSCLC, 3.03 µM and 2.4 µM; in the experiment with OVCAR-4 ovarian it was > 10 µM and 4.09 µM; in the experiment with A549 NSCLC it was > 10 µM and 2.72 µM; in the experiment with PC-3 prostate, > 10 µM and 2.99 µM; in the experiment on RPMI-8226 leukemia, 7.02 µM and 4.39 µM. Also, the TGI with HCC-2998 colon is 3 µM and 3.18 µM; in the experiment with SK-MEL-5 melanoma, 3.01 µM and 2.98 µM; in the experiment with SK-OV-3 ovarian it was > 10 µM and 3.19 µM; with COLO 205 colon, 3.1 µM.

As to `CCCN(CCC)CCCNCc1cc(I)cc(C)c1O`, the GI50 was 14.6 µM in the experiment with CAKI-1 renal; 5.04 µM in the experiment on HOP-92 NSCLC; 17.9 µM in the experiment with OVCAR-4 ovarian; 19.4 µM in the experiment on A549 NSCLC; 15.1 µM in the experiment on PC-3 prostate; 10.8 µM in the experiment with RPMI-8226 leukemia. For the same compound, the GI50 in the experiment with HCC-2998 colon is 20.9 µM; with SK-MEL-5 melanoma it was 6.83 µM; in the experiment on SK-OV-3 ovarian it was 16.3 µM; with COLO 205 colon, 13.8 µM. For the same compound, the TGI came to 30.6 µM with CAKI-1 renal; 18.6 µM in the experiment with HOP-92 NSCLC; 37.8 µM in the experiment on OVCAR-4 ovarian; 42.4 µM in the experiment with A549 NSCLC; 28.4 µM in the experiment on PC-3 prostate; 27.2 µM in the experiment on RPMI-8226 leukemia. Also, the TGI turned out to be 36.1 µM with HCC-2998 colon, 19.3 µM with SK-MEL-5 melanoma, 31 µM in the experiment on SK-OV-3 ovarian and 29 µM in the experiment on COLO 205 colon.

As to `Nc1ccn(C2OC(CO)C(O)C2F)c(=O)n1` (stereo not given), the GI50 in the experiment on CAKI-1 renal is 582 µM and > 5000 µM; in the experiment with HOP-92 NSCLC, > 5000 µM; with OVCAR-4 ovarian, > 5000 µM; in the experiment with A549 NSCLC it was > 5000 µM; with PC-3 prostate, > 5000 µM; with RPMI-8226 leukemia, > 5000 µM. Also, the GI50 in the experiment with HCC-2998 colon is > 5000 µM; in the experiment with SK-MEL-5 melanoma, > 5000 µM; with SK-OV-3 ovarian, > 5000 µM; in the experiment on COLO 205 colon, 688 µM. Further, the TGI in the experiment with CAKI-1 renal, in the experiment with HOP-92 NSCLC, in the experiment on OVCAR-4 ovarian, in the experiment on A549 NSCLC, in the experiment on PC-3 prostate and with RPMI-8226 leukemia was > 5000 µM each time. The TGI in the experiment with HCC-2998 colon, in the experiment with SK-MEL-5 melanoma, in the experiment on SK-OV-3 ovarian and in the experiment with COLO 205 colon was > 5000 µM throughout.

For `COC(=O)[C@@H](NC(=O)NC(=O)NC(=O)CI)C(C)C`, the GI50 was 1.41 µM with CAKI-1 renal; 2.7 µM in the experiment with HOP-92 NSCLC; 3.19 µM in the experiment with OVCAR-4 ovarian; 22.4 µM with A549 NSCLC; 16.3 µM with PC-3 prostate; 4.83 µM with RPMI-8226 leukemia. Moreover, the GI50 with HCC-2998 colon is 13.4 µM; in the experiment with SK-MEL-5 melanoma it was 17.4 µM; with SK-OV-3 ovarian it was 18.3 µM; in the experiment on COLO 205 colon, 1.97 µM. Moreover, the TGI in the experiment with CAKI-1 renal was determined as 2.73 µM; in the experiment on HOP-92 NSCLC it was 7.36 µM; in the experiment on OVCAR-4 ovarian, 13.7 µM; with A549 NSCLC, 41.5 µM; with PC-3 prostate, 30.7 µM; in the experiment on RPMI-8226 leukemia, 26.1 µM. Further, the TGI is 27.4 µM with HCC-2998 colon, 31.6 µM in the experiment with SK-MEL-5 melanoma, 33 µM in the experiment on SK-OV-3 ovarian and 4.01 µM in the experiment on COLO 205 colon.

These data come from PubChem BioAssay (NCI).
